Tests used:
VEGF = VEGF ELISA assay; format: cell-based; conditions: Homo sapiens; HEK293 cells; % of DFO stimulation
Protocol: HEK293 cells are seeded in 96-well poly-lysine coated plates at 20,000 ceils per well in DMEM (10% FBS, 1% NEAA, 0.1% glutamine). Following overnight incubation, the cells are washed with 100 uL of Opti-MEM (Gibco, Carlsbad, Calif.) to remove serum. Compound in DMSO is serially diluted (beginning with 100 μM) in Qpti-MEM and added to the cells. The conditioned media is analyzed for VEGF with a Quantikine human VEGF immunoassay kit (R&D Systems, Minneapolis, Minn.). Optical density measurements at 450 nm are recorded using the Spectra Max 250 (Molecular Devices, Sunnyvale, Calif.). Data defined as % of DFO stimulation is used to calculate EC50 values with GraphPad Prism 4 software (San Diego, Calif.).

EPO = test: Mouse serum EPO assay (mouse ischemic hindlimb study); format: in vivo
Protocol: (§1) Mouse Ischemic Hindlimb Study
(§2) All animal work is conducted in accordance with the Guide for the Care and Use of Laboratory Animals (National Academy of Sciences; Copyright©1996) and the Institutional Animal Care and Use Committee guidelines at Procter and Gamble Pharmaceuticals. We studied 9-10 week old male C57Bl/6 mice from Charles River Laboratory (Portage, Mich.). The mice are orally dosed with vehicle (aqueous carbonate buffer, 50 mM; pH 9.0) or compound 1 in vehicle at 50 mg/kg or 100 mg/kg. The animals are dosed three times: day 1 at 8 am and 5 pm, day 2 at […]. One hour after the first dose, unilateral arterial ligation is performed under anesthesia using isoflurane. The femoral artery is ligated proximal to the origin of the popliteal artery. The contralateral limb underwent a sham surgical procedure. Ligation is performed in an alternating fashion between right and left hindlimbs. Two hours after 8 am dosing on day 2, we obtained blood by ventricular stick while the mice are anesthetized with isoflurane. Serum samples for EPO analysis are obtained using gel clot serum separation tubes. Heart, liver, and gastrocnemius muscles are harvested, snap-frozen in liquid nitrogen, and stored in −80° C. until use.
The mouse serum EPO is detected using Mouse Quantikine Erythropoietin ELISA kit from R&D Systems according to manufacturer's ins tractions.

HIF-1α = test: Mouse tissue HIF Western blot analysis; format: in vivo; conditions: mouse liver, FIG. 1
Protocol: as §1, §2
Mouse Tissue HIF Western Blot Analysis
Tissues from mice stored at −80° C. are powdered with mortar and pestle chilled with liquid nitrogen. […]

human EGLN-3 = human EGLN-3 (Homo sapiens (Human), UniProt Q9H6Z9); test: EGLN-3 activity assay (MALDI-TOF MS); format: biochemical; conditions: His-MBP-TVMV-EGLN-3 fusion; HIF-1α peptide 556-574 as substrate; read-out: EGLIN3 IC50
Protocol: (§3) Data defined as percent conversion of substrate to product is analyzed in GraphPad Prism 4 to calculate IC50 values.

human EGLN-1 = human EGLN-1 (Homo sapiens (Human), UniProt Q9GZT9); test: EGLN-1 activity assay (MALDI-TOF MS); format: biochemical; conditions: read-out: EGLIN1 IC50
Protocol: as §3

Chain of human EGLN-3 (Q9H6Z9 whole entry, the tested form may be a part): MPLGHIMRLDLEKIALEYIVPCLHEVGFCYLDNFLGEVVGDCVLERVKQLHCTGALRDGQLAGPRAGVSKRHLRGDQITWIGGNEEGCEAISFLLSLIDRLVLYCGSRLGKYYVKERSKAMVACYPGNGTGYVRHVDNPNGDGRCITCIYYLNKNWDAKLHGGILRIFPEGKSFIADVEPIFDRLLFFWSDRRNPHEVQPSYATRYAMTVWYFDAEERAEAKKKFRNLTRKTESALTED
Chain of human EGLN-1 (Q9GZT9 179-426): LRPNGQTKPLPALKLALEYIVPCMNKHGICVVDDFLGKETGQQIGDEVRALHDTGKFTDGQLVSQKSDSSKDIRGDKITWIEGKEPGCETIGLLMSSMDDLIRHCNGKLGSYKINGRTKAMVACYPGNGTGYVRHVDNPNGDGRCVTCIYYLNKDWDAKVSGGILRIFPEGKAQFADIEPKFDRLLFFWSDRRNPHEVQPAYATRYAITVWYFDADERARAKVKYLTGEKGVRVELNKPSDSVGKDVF

| EC50 (VEGF) | SMILES | other results |
| --- | --- | --- |
| > 100 µM | CC(C)Oc1ccc(-c2cnc(C(=O)NCC(=O)O)c(O)c2)cc1 | – |
| 3.3 µM | Cc1ccc(Cl)cc1-c1cnc(C(=O)NCC(=O)O)c(O)c1 | – |
| 7.7 µM | COC(=O)CNC(=O)c1ncc(-c2ccccc2Cl)cc1O | – |
| > 100 µM | O=C(O)CNC(=O)c1ncc(-c2cccc(-c3nn[nH]n3)c2)cc1O | – |
| > 100 µM | COC(=O)CNC(=O)c1ncc(-c2ccc(Cl)cc2)cc1O | – |
| 50.1 µM | COC(=O)CNC(=O)c1ncc(-c2cccc(C(N)=O)c2)cc1O | – |
| > 100 µM | Cc1ccc(-c2ccc(C(=O)NCC(=O)O)c(O)c2)cc1 | – |
| 8.2 µM | COC(=O)CNC(=O)c1ncc(-c2ccc(C)cc2)cc1O | – |
| – | O=C(O)CNC(=O)c1ncc(-c2cccc(Cl)c2)cc1O [{[5-(3-Chlorophenyl)-3-hydroxypyridine-2-carbonyl]amino}-acetic acid] | erythropoietin level versus vehicle (EPO; mouse serum after oral dosing, FIG. 2): elevated versus vehicle; stabilization of HIF-1α (immunoblot analysis of nuclear extracts) (HIF-1α): stabilization of HIF-1α |
| > 100 µM | N#Cc1cccc(-c2cnc(C(=O)NCC(=O)O)c(O)c2)c1 | – |
| > 100 µM | COC(=O)CNC(=O)c1ncc(-c2cccc(C(=O)N3CCCC3)c2)cc1O | – |
| 9.9 µM | COC(=O)CNC(=O)c1ncc(-c2cccc(Cl)c2)cc1O | – |
| 7.6 µM | O=C(O)CNC(=O)c1ncc(-c2cccc(Cl)c2)cc1O [drawing 122] | – |
| 15 µM | CC(C)c1ccc(-c2cnc(C(=O)NCC(=O)O)c(O)c2)cc1 | – |
| > 100 µM | O=C(O)CNC(=O)c1ncc(-c2cccc(C(=O)N3CCCC3)c2)cc1O | – |

| SMILES | EC50 (VEGF) | other results |
| --- | --- | --- |
| CNC(=O)CNC(=O)c1ncc(-c2cccc(Cl)c2)cc1O | 1.4 µM | EPO response (EPO; in vivo response, mouse serum EPO): yes; IC50 (human EGLN-3): 1300 nM; IC50 (human EGLN-1): 1200 nM |
